No end group written: not given here.
Assays:
A549 cell line = conditions: in vitro A549 model; previous publications (Croxtall et al., 1993, 1998); cited from earlier work
PMN migration = format: in vivo; conditions: peptide s.c. 30 min prior to 1 mg zymosan into 6-day-old air-pouches; PMN counted 4 h after zymosan; n=15; P<0.01
Experimental: Male Swiss Albino mice (20-22 g body weight) were purchased from Interfauna (CFLP strain; Huntingdon, Cambridgeshire, UK) and maintained on a standard chow pellet diet with tap water ad libitum. Animals were used at least one week after arrival.
Air-pouches were formed on the back of the mice by subcutaneous (s.c.) injection of 2.5 ml of air on day 2 and day 5. Three days after the last air-injection (6-day-old air-pouches) 1 mg of zymosan (in 0.5 ml of sterile saline) was injected locally (Perretti et al., 1996). Zymosan was previously boiled for 30 min in phosphate buffered solution (PBS), extensively washed in the same medium and stored at -20°C prior to use.
Four hours after the local injection of zymosan, mice were killed by CO2 exposure and the air-pouches washed with 2 ml of PBS containing ethylenediaminetetracetic acid sodium salt (EDTA; 3 mM) and heparin (25 U/ml). […] The number of PMN was determined, using a Neubauer haematocytometer, after staining (1:10 dilution) with Turk's solution (crystal violet 0.01 % w/v in acetic acid 3% v/v).
Control mice were treated with sterile PBS (100 µl s.c.).

Row | Substance | inhibitory effect on A549 cell function (A549 cell line) | Approximate ED50s (inhibition of PMN migration) (PMN migration) [nmol]
1 | LC11-12: lipocortin 1 N-terminal fragment, residues 1-12, from previous publications (MAMVSEFLKQAW; UniProt P04083 1-12, looked up, fragment) | inactive | 
2 | EQEYVQTV [LC118-25] | significant inhibitory activity | 
3 | Ac-AMVSEFLKQAW [LC12-12, Ac-AMVSEFLKQAW] |  | ~110

Source: patent publication EP1100821B1, “ANTI-INFLAMMATORY COMPOUNDS DERIVED FROM LIPOCORTIN-1” (priority 1998, dated 2006)
